The data set relates to mice with CKD. Put plainly: CKD-induced muscle wasting in mice (subtotal nephrectomy). It is filed as in vivo. On the procedure: FIGS. 21A-21G provides a small molecule inhibitor of Stat3 activation, C188-9, that blocks CKD-induced muscle wasting. FIG. 21A. Sham or CKD mice were treated with C188-9 or D5W (diluent) for 14 days. Representative western blots of p-Stat3, Stat3 and GAPDH from lysates of gastrocnemius muscles are shown (n=8 mice/group). FIG. 21B. Differences in body weights of pair-fed, sham or CKD mice treated with C188-9 or D5W at baseline and after 7 or 14 days of treatment (*p<0.05 vs. D5W sham). FIGS. 21C & 21D. Average weights of mixed fiber gastrocnemius and tibialis anterior (TA) muscles from both legs (n=7 mice/group). FIG. 21E. Cryosections of TA muscles were immunostained with anti-laminin to identify the muscle basement membrane. The myofiber areas were measured and the myofiber size distribution was calculated from the areas of ˜500 myofibers assessed by an observer blinded to treatment group (n=4 pairs of mice). FIG. 21F. Muscle force of each mouse studied in FIG. 3C was measured on four consecutive days (Experimental Procedures; n=7 mice/group). G&H. At 2 weeks of C188-9 or D5W treatment, protein synthesis (FIG. 21G) and degradation (FIG. 21H) were measured (n=8 pairs of mice; *p<0.05 vs. D5W). Values are means±SEM.
FIG. 23A. Representative western blots of the indicated proteins from lysates of gastrocnemius muscles of control (Stat3flox/flox) or Stat3 KO sham or CKD mice. FIGS. 23B & 23C. mRNAs of myostatin (FIG. 23B) and C/EBPδ in muscles of sham or CKD mice analyzed by RT-PCR (n=4 mice/group; *p<0.05 vs. Stat3flox/flox sham). FIG. 23D. Representative western blots of the indicated proteins in lysates of gastrocnemius muscles of STZ vs. WT control mice (n=5 pairs). FIG. 23E. Sham or CKD mice were treated with C188-9 or D5W (diluent) for 14 days. Representative western blots of indicated proteins from lysates of gastrocnemius muscles are shown (n=8 mice/group). FIGS. 23F & 23G. mRNA levels of myostatin (FIG. 23F) and C/EBPδ (FIG. 23G) analyzed by RT-PCR and corrected for GAPDH (n=3 mice/group: wild-type mice without CKD; sham mice treated with C188-9 or D5W; mice with CKD treated with C188-9 or D5W; *p<0.05 vs. WT non-CKD). Values are means±SEM. FIG. 6. C/EBPδ and myostatin mediate CKD or Stat3-induced muscle wasting. A. Body weights of wild type or homo- or hetero-C/EBPδ KO mice following creation of CKD. Values are expressed as a percentage of basal body weight (mean±SEM; n=9 for WT mice; n=11 for C/EBPδ−/−; n=11 for C/EBPδ+/− mice; *p<0.05 vs. WT CKD). FIG. 23B. Survival was calculated as the percentage of mice surviving at 3 weeks after CKD or after sham surgery (n=20 for WT; n=25 for C/EBPδ−/−; n=21 for C/EBPδ+/−; *p<0.05 vs. C/EBPδ−/− CKD). FIG. 23C. Average weights from both legs of red fiber (soleus) or white fiber (EDL) muscles (mean±SEM; n=10 mice/group; *p<0.05 vs. WT CKD). FIG. 23D. Representative western blots of p-Stat3 and myostatin from muscles of CKD or sham-operated mice of the following groups: C/EBPδ−/−, C/EBPδ+/− or control (WT). FIG. 23E. Cryosections of gastrocnemius muscles from mice that were transfected with lentivirus expressing Stat3C-GPF or GFP and treated with anti-myostatin inhibitor or PBS. The sections were immunostained with p-Smad2/3 (red, lower panel). […] FIG. 23F. GFP-positive areas in myofibers were measured and the mean myofiber sizes of each group are shown (left panel). The percentage of p-Smad2/3 positive nuclei to total nuclei was calculated (right panel; mean±SEM, *p<0.05 vs. GFP/PBS).
All animal experiments and procedures were approved by the Baylor College of Medicine Institutional Animal Care and Use Committee (IACUC). Subtotal nephrectomy was used to create CKD in mice (Zhang et al., 2011; May et al., 1987). To induce diabetes, 12-week-old Stat3^flox/flox and Stat3 KO mice were injected intraperitoneally with 2 doses of 150 mg/kg/d STZ (Sigma-Aldrich) in 0.1 M citrate buffer (pH 4). Control mice were injected with the citrate buffer. […]

The mark [1] stands for this setting: CKD mice, 6.25 mg/kg subcutaneously daily for 14 days vs. D5W.
[2] abbreviates: CKD mice, at 2 weeks, EDL muscles.

Take `COc1ccc(S(=O)(=O)Nc2cc(-c3c(O)ccc4ccccc34)c(O)c3ccccc23)cc1` [C188-9]: under setting [1], the body weights result was “significantly greater” and the “level of p-Stat3 in muscle” value was “decreased”. For the same compound, for the setting “CKD mice, 14 days”, the “Akt phosphorylation in muscle” value was “higher” and the “CKD-induced phosphorylation of p-Smad2/3” value is listed as “blocked”. Moreover, for the setting “CKD mice, 14 days vs. D5W”, the grip strength entry is “improved grip strength”. The “C/EBPδ and myostatin proteins in muscle” value (CKD mice, 14 days, gastrocnemius lysates) is “decreased”. Further, where the note is “CKD mice, RT-PCR”, the “CKD-stimulated mRNA expressions of C/EBPδ and myostatin” value is given as “suppressed”. For the same compound, the “weights of gastrocnemius and tibialis anterior muscles” value (CKD mice, after 14 days vs. D5W) is listed as “greater”. Under setting [2], the muscle protein degradation entry is on record as “decreased protein degradation” and the muscle protein synthesis result is on record as “improved muscle protein synthesis”. In addition, the “C/EBPδ or myostatin mRNAs or proteins in muscle” value (control mice without CKD) is “did not change”. Further, the “food intake, body weight, muscle mass or grip strength” value (control, wild type mice without CKD) is reported as “did not significantly affect”.

(Values after patent publication US11161831B2, “Methods and compositions for treatment of muscle wasting, muscle weakness, and/or cachexia” (Baylor College of Medicine, priority 2013, dated 2021).)
